Experiments:
[1] = Heeg and Tachizawa 1980; cited from earlier work
[2] = Solubility determination of probucol in oils and binary solvent systems (HPLC assay); type: physicochemical
Description: Captex® 200 is a propylene glycol ester of caprylic (C₈) and capric (C₁₀) fatty acids obtained by fractionation of certain coconut oil fatty acids and is known generically as propylene glycol dicaprylate/dicaprate. Captex® 300 is a caprylic and capric acid triglyceride obtained by fractionation and subsequent esterification of coconut oil and is known generically as caprylic/capric triglyceride. Capmul® MCM is a mono and diglyceride of caprylic and capric acids.
Eight grams of each oil were transferred into a glass tube with a teflon liner screw cap, and 2.5 g of probucol were added to each tube. The tubes were capped and shaken by hand until the probucol particles were wetted. The tubes were then rotated for at least 48 hours on a test tube rotating apparatus. The solubility of probucol was determined using a high performance liquid chromatography (HPLC) assay procedure.
In order to determine if the solubility of probucol could be enhanced by incorporating absolute ethanol in the oil, three binary systems: safflower oil:ethanol (90:10), polyethylene glycol (PEG) 400:ethanol (90:10, 80:20, 70:30), and Captex® 200:ethanol (95:5, 90:10, 85:15, 80:20, and 75:25) were evaluated. The solubility data shown in Table II indicate that in each case the solubility of probucol increased in the presence of ethanol.

For CC(C)(Sc1cc(C(C)(C)C)c(O)c(C(C)(C)C)c1)Sc1cc(C(C)(C)C)c(O)c(C(C)(C)C)c1 [probucol, 2,2'-bis (3,5-di-tertiarybutyl-4-hydroxyphenylthio)propane], the “bioavailability of probucol from tablet dosage form” value [1] is given as 2-8%, the “Solubility (%w/v)” value ([2]; Captex® 200:Ethanol 75:25) is given as 26.0 %w/v and the “Solubility (%w/v)” value ([2]; Captex® 200:Ethanol 80:20) is given as 26.0 %w/v. The “Solubility (%w/v)” value ([2]; Captex® 200:Ethanol 85:15) was 25.0 %w/v, the “Solubility (%w/v)” value ([2]; Captex® 200:Ethanol 90:10) was 24.0 %w/v and the “Solubility (%w/v)” value ([2]; Captex® 200:Ethanol 95:5) was 23.0 %w/v. For the same molecule, the “Solubility (%w/v)” value ([2]; PEG 400 100:00) was 2.8 %w/v, the “Solubility (%w/v)” value ([2]; PEG 400:Ethanol 80:20) was 9.5 %w/v and the “Solubility (%w/v)” value ([2]; PEG 400:Ethanol 90:10) was 5.8 %w/v. For the same molecule, the “Solubility (%w/v)” value ([2]; PEG 400 Ethanol 70:30) was 13.1 %w/v, the “Solubility (%w/v)” value ([2]; Safflower Oil:Ethanol 90:10) was 11.5 %w/v and the “Solubility (%w/v)” value ([2]; in Capmul® MCM) was 6.3 % w/v. The “Solubility (%w/v)” value ([2]; in Captex® 200) was 18.2 % w/v, the “Solubility (%w/v)” value ([2]; in Captex® 300) was 12.5 % w/v and the “Solubility (%w/v)” value ([2]; in Corn oil) was 5.8 % w/v. For the same molecule, the “Solubility (%w/v)” value ([2]; in Olive oil) was 5.5 % w/v, the “Solubility (%w/v)” value ([2]; in Peanut oil) was 5.6 % w/v and the “Solubility (%w/v)” value ([2]; in Safflower oil) was 5.9 % w/v. The “Solubility (%w/v)” value ([2]; in Sunflower oil) was 5.8 % w/v and the “Solubility (%w/v)” value ([2]; in Vegetable oil) was 5.8 % w/v.

Source: patent EP0563112B1, “ENHANCED BIOAVAILABILITY PHARMACEUTICAL COMPOSITION CONTAINING PROBUCOL” (MERRELL DOW PHARMACEUTICALS INC., priority 1990, dated 1992)
